Data taken from patent US9949938B2, “CoQ10 (ubiquinone, ubiquinol), vitamin A (retinoid acid, retinol), vitamin E (tocotrienol, tocopherol) and methods of use” (AMERICAN RIVER NUTRITION, priority 2013, dated 2018).

Experiments:
[1] = CoQ10 with and without tocotrienol in hydrochloric acid (pH<2), 30 minutes, simulated gastric conditions; format: physicochemical; conditions: in the presence of tocotrienol versus without; HCl pH<2, 30 minutes
Experimental: 100 mg CoQ10 (ubiquinone or ubiquinol), with and without tocotrienol, was placed in a beaker with acid (hydrochloric acid) (pH<2) for 30 minutes to simulate gastric conditions.

[2] = gastric conditions, pH<2, 30 minutes; cited from earlier work

## COC1=C(OC)C(=O)C(C/C=C(\C)CC/C=C(\C)CC/C=C(\C)CC/C=C(\C)CC/C=C(\C)CC/C=C(\C)CC/C=C(\C)CC/C=C(\C)CC/C=C(\C)CCC=C(C)C)=C(C)C1=O [CoQ10, 2,3-dimethoxy-5-methyl-6-decaprenil-1,4-benzoquinone]
[1]
  CoQ10 content (both ubiquinone or ubiquinol) after acid: higher content

## COc1c(O)c(C)c(C/C=C(\C)CC/C=C(\C)CC/C=C(\C)CC/C=C(\C)CC/C=C(\C)CC/C=C(\C)CC/C=C(\C)CC/C=C(\C)CC/C=C(\C)CCC=C(C)C)c(O)c1OC [ubiquinol]
[2]
  ubiquinol converted to ubiquinone: about 50%
